Laboratory results taken from ChEMBL document CHEMBL1201862, “PubChem BioAssay data set” (2004).
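All cell lines were grown in 96-well plates and treated with compound for 48 hours. The concentration for 50% growth inhibition is given as GI50.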 Activity calls are given as the source filed them. Rule as the data show it: active = GI50 up to about 1.1 µM and inactive = higher.

Legend:
Assay in all cases: NCI anticancer screen, dose series, 48 h
SF-268 = test system: SF-268
SK-MEL-28 = test system: SK-MEL-28
UO-31 = test system: UO-31
SR = test system: SR
OVCAR-5 = test system: OVCAR-5
HCT-15 = test system: HCT-15
NCI-H522 = test system: NCI-H522
T47D = test system: T47D
HT-29 = test system: HT-29
EKVX = test system: EKVX
SF-295 = test system: SF-295
A549 = test system: A549
HCC 2998 = test system: HCC 2998
IGROV-1 = test system: IGROV-1
KM12 = test system: KM12
SNB-75 = test system: SNB-75
SW-620 = test system: SW-620
LOX IMVI = test system: LOX IMVI
HOP-92 = test system: HOP-92
HL-60 = test system: HL-60

Row | Structure (SMILES) | GI50 (SF-268) | GI50 (SK-MEL-28) | GI50 (UO-31) | GI50 (SR) | GI50 (OVCAR-5) | GI50 (HCT-15) | GI50 (NCI-H522) | GI50 (T47D) | GI50 (HT-29) | GI50 (EKVX) | GI50 (SF-295) | GI50 (A549) | GI50 (HCC 2998) | GI50 (IGROV-1) | GI50 (KM12) | GI50 (SNB-75) | GI50 (SW-620) | GI50 (LOX IMVI) | GI50 (HOP-92) | GI50 (HL-60)
1 | C(=N\CCCN1CCN(CCC/N=C/c2cccc3ccccc23)CC1)/c1cccc2ccccc12 | > 100 µM (inactive) | 56.4 µM (inactive) | 48.3 µM (inactive) | 38 µM (inactive) | > 100 µM (inactive) | 34.8 µM | > 100 µM (inactive) | > 100 µM (inactive) | 45.3 µM (inactive) | 71.8 µM (inactive) | 57.9 µM (inactive) | > 100 µM (inactive) | > 100 µM (inactive) | > 100 µM (inactive) | > 100 µM (inactive) | 29.9 µM (inactive) | 64.9 µM (inactive) | 42.5 µM (inactive) | – | –
2 | C/C=C(\C)c1cc(=O)c2c(C)cc3c(c2o1)C(=O)c1c(O)c(C2CC(C)(N(C)C)C(OC(C)=O)C(C)O2)cc(C2CC(N(C)C)C(O)C(C)O2)c1C3=O (stereo not drawn) | 0.655 µM (active) | 1.91 µM (inactive) | 0.948 µM (active) | – | 1.25 µM (inactive) | 1.27 µM | 0.172 µM (active) | 1.53 µM (inactive) | 0.324 µM (active) | 1.12 µM (active) | 1.06 µM (active) | 0.41 µM (active) | 0.0589 µM (active) | 0.8 µM (active) | 1.12 µM (active) | 1.64 µM (inactive) | 0.532 µM (active) | 0.731 µM (active) | 1.45 µM (inactive) | 0.438 µM (active)
3 | COc1cc2nc(-c3cccs3)nc(N3CCN(c4ccccc4C(F)(F)F)CC3)c2cc1OC | 60.3 µM (inactive) | > 100 µM (inactive) | > 100 µM (inactive) | – | > 100 µM (inactive) | > 100 µM | 90.4 µM (inactive) | > 100 µM (inactive) | > 100 µM (inactive) | 53.7 µM (inactive) | 51.2 µM (inactive) | > 100 µM (inactive) | > 100 µM (inactive) | 25.9 µM (inactive) | 75.5 µM (inactive) | > 100 µM (inactive) | > 100 µM (inactive) | > 100 µM (inactive) | 21.4 µM (inactive) | 3.87 µM (inactive)
4 | O=c1c(-c2ccccc2)c(SCCN2CCCC2)n(-c2ccccc2)c(=S)n1-c1ccccc1 | > 100 µM (inactive) | > 100 µM (inactive) | – | – | > 100 µM (inactive) | > 100 µM | > 100 µM (inactive) | > 100 µM (inactive) | > 100 µM (inactive) | > 100 µM (inactive) | > 100 µM (inactive) | > 100 µM (inactive) | > 100 µM (inactive) | > 100 µM (inactive) | > 100 µM (inactive) | 34.4 µM (inactive) | > 100 µM (inactive) | > 100 µM (inactive) | 71.9 µM (inactive) | > 100 µM (inactive)
5 | CCOC(=O)n1[nH]c(=O)n(-c2ccccc2)c1=O | > 100 µM (inactive) | > 100 µM (inactive) | > 100 µM (inactive) | > 100 µM (inactive) | > 100 µM (inactive) | > 100 µM | – | > 100 µM (inactive) | > 100 µM (inactive) | > 100 µM (inactive) | > 100 µM (inactive) | > 100 µM (inactive) | > 100 µM (inactive) | > 100 µM (inactive) | > 100 µM (inactive) | > 100 µM (inactive) | > 100 µM (inactive) | > 100 µM (inactive) | – | > 100 µM (inactive)
6 | Cc1nc(O)c2ncn(CCO)c2n1 | > 100 µM (inactive) | > 100 µM (inactive) | – | > 100 µM (inactive) | > 100 µM (inactive) | > 100 µM | > 100 µM (inactive) | > 100 µM (inactive) | > 100 µM (inactive) | > 100 µM (inactive) | > 100 µM (inactive) | > 100 µM (inactive) | > 100 µM (inactive) | > 100 µM (inactive) | > 100 µM (inactive) | > 100 µM (inactive) | > 100 µM (inactive) | > 100 µM (inactive) | – | > 100 µM (inactive)
7 | CC(=O)O[C@H]1CC[C@@]2(C)C(=CC[C@H]3[C@@H]4C/C(=C\c5ccc(N(C)C)cc5)[C@H](OC(C)=O)[C@@]4(C)CC[C@@H]32)C1 | 12.7 µM (inactive) | 12.7 µM (inactive) | 11.3 µM (inactive) | 4.1 µM (inactive) | 19.6 µM (inactive) | 6.27 µM | – | 5.56 µM (inactive) | 8.43 µM (inactive) | 8.69 µM (inactive) | 4.12 µM (inactive) | 5.92 µM (inactive) | – | 13.8 µM (inactive) | 11.9 µM (inactive) | 15.8 µM (inactive) | 14.9 µM (inactive) | 8.91 µM (inactive) | – | 11.5 µM (inactive)
8 | NC(=O)C1=C(O)C[C@@H]2CC3Cc4cccc(O)c4C(=O)C3=C(O)[C@]2(O)C1=O (stereo partly drawn) | 2.02 µM (inactive) | 4 µM (inactive) | 2.9 µM (inactive) | – | 0.449 µM (active) | 0.479 µM | 1.89 µM (inactive) | 2.63 µM (inactive) | 0.339 µM (active) | 0.861 µM (active) | 1.85 µM (inactive) | 0.592 µM (active) | 3.1 µM (inactive) | 2 µM (inactive) | 9.55 µM (inactive) | 2.43 µM (inactive) | 3.57 µM (inactive) | 1.77 µM (inactive) | 1.67 µM (inactive) | 2.83 µM (inactive)
9 | CN(Cc1cnc2nc(N)nc(N)c2n1)c1ccc(C(=O)NCS(=O)(=O)O)cc1 | 33.3 µM (inactive) | > 100 µM (inactive) | > 100 µM (inactive) | – | > 100 µM (inactive) | > 100 µM | > 100 µM (inactive) | > 100 µM (inactive) | > 100 µM (inactive) | > 100 µM (inactive) | > 100 µM (inactive) | 95.7 µM (inactive) | > 100 µM (inactive) | > 100 µM (inactive) | 60.1 µM (inactive) | 29.4 µM (inactive) | 78.5 µM (inactive) | 90.4 µM (inactive) | 1.34 µM (inactive) | –
10 | COC(=O)[C@H](Cc1ccccc1)NP(=O)(OCCC#N)OCC1OC(n2cc(C)c(=O)[nH]c2=O)CC1N=[N+]=[N-] (stereo partly drawn) | > 100 µM (inactive) | – | > 100 µM (inactive) | – | > 100 µM (inactive) | > 100 µM | 35 µM (inactive) | > 100 µM (inactive) | > 100 µM (inactive) | > 100 µM (inactive) | > 100 µM (inactive) | > 100 µM (inactive) | > 100 µM (inactive) | > 100 µM (inactive) | > 100 µM (inactive) | > 100 µM (inactive) | > 100 µM (inactive) | > 100 µM (inactive) | > 100 µM (inactive) | > 100 µM (inactive)
11 | CN1CC2CC(C1)c1cccc(=O)n1C2 (stereo not drawn) | > 100 µM (inactive) | – | > 100 µM (inactive) | – | > 100 µM (inactive) | > 100 µM | > 100 µM (inactive) | > 100 µM (inactive) | > 100 µM (inactive) | > 100 µM (inactive) | > 100 µM (inactive) | > 100 µM (inactive) | 0.253 µM (active) | > 100 µM (inactive) | > 100 µM (inactive) | > 100 µM (inactive) | – | > 100 µM (inactive) | > 100 µM (inactive) | –
